Active and inactive are the calls of the source. No cut-off for these calls is given here.
Experiments:
Format in all cases: functional, cell-based
Settings in all cases: Homo sapiens
HUVEC [1] = test: Antiapoptotic activity against HUVEC cells at 10 ug/ml after 48 hrs by MTT calorimetric assay
HUVEC [2] = test: Antiapoptotic activity against HUVEC cells at 5 ug/ml after 24 hrs by MTT calorimetric assay
HUVEC [3] = test: Antiapoptotic activity against HUVEC cells at 5 ug/ml after 48 hrs by MTT calorimetric assay
HUVEC [4] = test: Antiapoptotic activity against HUVEC cells at 10 ug/ml after 24 hrs by MTT calorimetric assay
HUVEC [5] = test: Antiapoptotic activity against HUVEC cells assessed as inhibition of DNA condensation and fragmentation after 48 hrs by DAPI staining
HREC = test: Antiapoptotic activity against HREC cells assessed as cell viability after 48 hrs
HUVEC [6] = test: Antiapoptotic activity against HUVEC cells assessed as inhibition of DNA condensation and fragmentation after 48 hrs by TUNEL assay

COC[C@H]1O[C@@H](O[C@H]2CC[C@@]3(C)C(=CC[C@H]4[C@@H]5CC[C@H]([C@H](C)CCCC(C)C)[C@@]5(C)CC[C@@H]43)C2)C[C@@H](OC)[C@@H]1OC
Activity (HUVEC [1]): inactive
Activity (HUVEC [2]): inactive
Activity (HUVEC [3]): inactive
Activity (HUVEC [4]): inactive

CC(C)CCC[C@@H](C)[C@H]1CC[C@H]2[C@@H]3CC=C4C[C@@H](O[C@@H]5O[C@H](CO)[C@@H](O)[C@H](O)[C@H]5O)CC[C@]4(C)[C@H]3CC[C@]12C
Activity (HUVEC [1]): inactive
Activity (HUVEC [2]): inactive
Activity (HUVEC [3]): inactive
Activity (HUVEC [4]): inactive

CC(C)CCC[C@@H](C)[C@H]1CC[C@H]2[C@@H]3CC=C4C[C@@H](O[C@H]5C=C[C@H](O)[C@@H](CO)O5)CC[C@]4(C)[C@H]3CC[C@]12C
Activity (HUVEC [1]): inactive
Activity (HUVEC [2]): inactive
Activity (HUVEC [3]): inactive
Activity (HUVEC [4]): inactive

CC(C)CCC[C@@H](C)[C@H]1CC[C@H]2[C@@H]3CC=C4C[C@@H](Oc5ccc6ccccc6c5)CC[C@]4(C)[C@H]3CC[C@]12C
Activity (HUVEC [2]): Active
Activity (HUVEC [3]): Active

CC(C)CCC[C@@H](C)[C@H]1CC[C@H]2[C@@H]3CC=C4C[C@@H](O[C@H]5C[C@@H](O)[C@H](O)[C@@H](CO)O5)CC[C@]4(C)[C@H]3CC[C@]12C
Activity (HUVEC [1]): Active
Activity (HUVEC [2]): Active
Activity (HUVEC [3]): Active
Activity (HUVEC [4]): Active

CC(=O)OC[C@H]1O[C@@H](O[C@H]2CC[C@@]3(C)C(=CC[C@H]4[C@@H]5CC[C@H]([C@H](C)CCCC(C)C)[C@@]5(C)CC[C@@H]43)C2)C=C[C@@H]1OC(C)=O
Activity (HUVEC [5]): Active
Activity (HUVEC [1]): Active
Activity (HUVEC [2]): Active
Activity (HREC): Active
Activity (HUVEC [6]): Active
Activity (HUVEC [3]): Active
Activity (HUVEC [4]): Active

C=CCO[C@H]1CC[C@@]2(C)C(=CC[C@H]3[C@@H]4CC[C@H]([C@H](C)CCCC(C)C)[C@@]4(C)CC[C@@H]32)C1
Activity (HUVEC [2]): Active
Activity (HUVEC [3]): Active

CC(C)CCC[C@@H](C)[C@H]1CC[C@H]2[C@@H]3CC=C4C[C@@H](OC/C=C/CO)CC[C@]4(C)[C@H]3CC[C@]12C
Activity (HUVEC [2]): Active
Activity (HUVEC [3]): Active

COC[C@H]1O[C@@H](O[C@H]2CC[C@@]3(C)C(=CC[C@H]4[C@@H]5CC[C@H]([C@H](C)CCCC(C)C)[C@@]5(C)CC[C@@H]43)C2)C=C[C@@H]1OC
Activity (HUVEC [1]): Active
Activity (HUVEC [2]): Active
Activity (HUVEC [3]): Active
Activity (HUVEC [4]): Active

COCCOCO[C@H]1CC[C@@]2(C)C(=CC[C@H]3[C@@H]4CC[C@H]([C@H](C)CCCC(C)C)[C@@]4(C)CC[C@@H]32)C1
Activity (HUVEC [2]): Active
Activity (HUVEC [3]): Active

CC(C)CCC[C@@H](C)[C@H]1CC[C@H]2[C@@H]3CC=C4C[C@@H](O[C@H]5CCCCO5)CC[C@]4(C)[C@H]3CC[C@]12C
Activity (HUVEC [5]): Active
Activity (HUVEC [1]): Active
Activity (HUVEC [2]): Active
Activity (HREC): Active
Activity (HUVEC [6]): Active
Activity (HUVEC [3]): Active
Activity (HUVEC [4]): Active

C=C(CCC=C(C)C)[C@H]1CC[C@]2(C)[C@@H]1[C@H](O)C[C@@H]1[C@@]3(C)CC[C@H](O[C@@H]4O[C@H](CO)[C@@H](O)[C@H](O)[C@H]4O[C@@H]4O[C@H](CO)[C@@H](O)[C@H](O)[C@H]4O)C(C)(C)[C@@H]3CC[C@]12C
Activity (HUVEC [1]): Active
Activity (HUVEC [2]): Active
Activity (HUVEC [3]): Active
Activity (HUVEC [4]): Active

From ChEMBL document CHEMBL1287695, “Cholesterol-derived novel anti-apoptotic agents on the structural basis of ginsenoside Rk1” (Bioorg Med Chem Lett, 2010)
